Data set [1] concerns alcohol induced increase of gastric glandular capillary permeability. As to the kind of experiment: Alcohol induced increase of gastric glandular capillary permeability. The data set is classed as in vivo, rats. The conditions noted are these: 100% ethanol alone. The procedure: After 13 minutes 1 ml of 100% ethanol was added perorally and after further 2 minutes the stomachs were removed and their weights measured. […]

Data set [2] deals with lesions caused by intomethacin. Description: Indomethacin-induced gastric lesions. It counts as in vivo, female OFA-rats. Conditions: Rattus norvegicus, po, 6 h, read-out: ED50 mg/kg (p.o.). The procedure: The compounds were administered in a volume of 0.5 ml/100 g in a suspension prepared in water with 2-4% Tween-80. After 6 hours the animals were over-anesthesized and their stomachs were opened along the greater curvature. The preparations were investigated by stereomicroscopy using an 8-fold enlargement. The number, size and incidence of erosions and ulcers was noted and compared with the control group treated with the carrier only.
The size of the ulcers was determined on the basis of the following score:
1: ulcer or erosion of the size of 1-2 mm;
2: ulcer or erosion of the size of 2-3 mm;
3: ulcer or erosion of the size of 3-4 mm;
4: ulcer longer than 4 mm;
5: ulcer longer and broader than 4 mm.
The ED50 values were calculated on the basis of ulcer-indexes:
ulcer index=/severeity of lesion x number of lesions/number of animals /n/

Data set [3] has as its system ulcers induced by reserpine. As to the kind of experiment: Reserpine induced ulcers. It counts as in vivo, female OFA rats. The conditions noted are these: 40 mg/kg p.o.; reserpine 5 mg/kg s.c.; 18 h. How it is done: Female OFA rats of 130-160 g weight, starved for 24 hours, were treated at the same time perorally with 40 mg/kg doses of the substances to be tested and with 5 mg/kg s.c. doses of reserpine. After 18 hours the animals were over-anesthesized and the removed stomachs were investigated under stereomicroscope using a 8-fold enlargement. The number of ulcers was counted and their size was evaluated using 0-0.5-1-2-4-8-16-32 scores. The number of animals was 5 for each dose.

The test system of data set [4] is lesions induced with hydrochloric acid and ethanol. Description: Gastric haemorrhages induced by hydrochloric acid in ethanol (cytoprotection). Conditions: for average length of haemmorrhages, change in %: treated vs control; for protection against hydrochloric acid/ethanol lesions (in words): 100 mg/kg. The data set is classed as in vivo, female rats. The procedure: The volume of treatment was 0.5 ml/100 g. […] The average degree of haemorrhages of the treated groups was compared to the control groups treated with the vehicle only. Number of animals was 6-18 in each group.

The test system of data set [5] is stress ulcer caused by immersion. Description: Stress ulcer caused by immersion. Conditions: for erosion inhibition % / erosion ulcus-index mm / hyperemia inhibition % / hyperemia ulcer-index mm: n = 7. It counts as in vivo, Wistar rats. The procedure: 30 minutes after peroral treatment with the test substance, […]. After seven hours the glandular lesions appearing in the stomach were evaluated according to the score described in Example I.1.

Data set [6] relates to histamine stimulated hydrochlorid acid secretion. As to the kind of experiment: Histamine stimulated gastric acid secretion in Shay rats. The data set is classed as in vivo. Conditions: histamine alone 10 mg/kg s.c. How it is done: The test substances were added on the course of operation intra-duodenally. Immediately after operation each rat obtained 0.50 ml s.c. of a physiological salt solution for hydration. After 4 hours the rats were over-anesthesized, the stomach liquid was collected, centrifugated and the volume determined. […] Measurement of stimulated secretion of gastric acid was also carried out according to the above method.

Data set [7] deals with lesions caused by the NSAID naproxen. Description: Naproxen-induced gastric erosions, test substance 1 hour after naproxen. The data set is classed as in vivo, WISTAR rats. The conditions noted are these: naproxen alone 75 mg/kg po., n = 7. The procedure:
(§1) Administration of the test substances followed 1 hour after injection. After 4 hours the animals were over-anesthesized with ether and the changes (erosions) were evaluated as in Example I.1. The size of the lesions was characterized by way of the ulcer index.

Data set [8] deals with lesions caused by the NSAID piroxicam. As to the kind of experiment: Piroxicam-induced gastric erosions, test substance 1 hour after piroxicam. The data set is classed as in vivo, WISTAR rats. Conditions: piroxicam alone 60 mg/kg po., n = 7. How it is done:
as §1

Where [9] appears, read: 60 min before 20 mg/kg indomethacin, from ulcer index, confidence limits 95%.
The mark [10] stands for this setting: 20.0 mg/kg p.o., control 61.3 ± 9.8 (substance 6, n = 6), 80.4 ± 8.2 (substance 11, n = 12).

Each structure is given as a SMILES string. Read-outs that look alike come from different tables or passages of the source. Marks after values point to notes of the source that are not given here.

Consider `CCO` [100% ethanol, reference compound], for which, in data set [1], the “Evans-blue” value was 9.45 ± 0.94 µg/g and the “stomach” value was determined as 1.1 ± 0.15 g.
Take `Clc1ccc2c(-n3cncn3)ccnc2c1` [Substance 2, 4-(1H-1,2,4-triazole-1-yl)-7-chloro-quinoline]: in data set [2] (setting [9]), the ED50 turned out to be 53 mg/kg.
On to `Cc1ccc2c(-n3cncn3)ccnc2c1` [Substance 3, 4-(1H-1,2,4-triazole-1-yl)-7-methyl-quinoline], for which the ED50 in data set [2] (setting [9]) came to 74 mg/kg.
For `Cc1cc(-n2cncn2)c2ccccc2n1` [Substance 4, 2-methyl-4-(1H-1,2,4-triazole-1-yl)-quinoline], the ED50 in data set [2] (setting [9]) worked out at 44 mg/kg.
In the case of `c1ccc2nc(-n3cncn3)ccc2c1` [Substance 5, 2-(1H-1,2,4-triazole-1-yl)-quinoline], the ED50 in data set [2] (setting [9]) was 38 mg/kg.
With `Cc1cc2ccccc2nc1-n1cncn1` [Substance 6, 2-(1H-1,2,4-triazole-1-yl)-3-methyl-quinoline], in data set [3], the “number of ulcers, %change compared with control” value was “+17%”; the “severity of ulcers, %change compared with control” value is listed as -5%; the ulcers per treated is recorded as 5/5. The ED50 in data set [2] (setting [9]) was 29 mg/kg. The “average length of haemmorrhages, treated” value in data set [4] (setting [10]) came to 48.0 ± 10.3 mm. Besides, in data set [4] (20.0 mg/kg p.o.), the “average length of haemmorrhages, change in %” value (from here on “average length … change in %”) is -22%.
Turning to `Cc1cc2ccc(Br)cc2nc1-n1cncn1` [Substance 7, 2-(1H-1,2,4-triazole-1-yl)-3-methyl-7-bromo-quinoline], the ED50 in data set [2] (setting [9]) is 34 mg/kg.
In the case of `CCc1ccc2cc(C)c(-n3cncn3)nc2c1` [Substance 8, 2-(1H-1,2,4-triazole-1-yl)-3-methyl-7-ethyl-quinoline], the ED50 in data set [2] (setting [9]) was 40 mg/kg.
`Cc1cc(Sc2nc[nH]n2)c2ccccc2n1` [Substance 9, 2-methyl-4-(1H-1,2,4-triazole-3-yl-thio)-quinoline]: the ED50 in data set [2] (setting [9]) is 47 mg/kg.
Same read-out and setting: for `CCc1nc(Sc2cc(C)nc3cc(C)cc(C)c23)n[nH]1` [Substance 10, 2,5,7-trimethyl-4-(5-ethyl-1H-1,2,4-triazole-3-yl-thio)-quinoline] the value was 74 mg/kg.
For `Cc1cc2ccccc2nc1Sc1nc[nH]n1` [Substance 11, 2-(1H-1,2,4-triazole-3-yl-thio)-3-methyl-quinoline], in data set [3], the “number of ulcers, %change compared with control” value is “+67%”; the “severity of ulcers, %change compared with control” value is listed as “+37%”; the ulcers per treated was 5/5. The ED50 in data set [2] (setting [9]) was determined as 14 mg/kg. For the same compound, in data set [4] (setting [10]), the “average length of haemmorrhages, treated” value was 51.8 ± 10.0 mm. Also, in data set [4] (20.0 mg/kg p.o.), the “average length … change in %” value is on record as -36%.
For the compound `CCc1nc(Sc2nc3ccccc3cc2C)n[nH]1` [Substance 12, 2-(5-ethyl-1H-1,2,4-triazole-3-yl-thio)-3-methyl-quinoline], the ED50 in data set [2] (setting [9]) came to 74 mg/kg.
Turning to `CN/C(=N/CCSCc1nc[nH]c1C)NC#N` [cimetidine, reference compound], the ED50 in data set [2] was 96 mg/kg. Moreover, in data set [4], the “protection against hydrochloric acid/ethanol lesions (in words)” value was “practically ineffective”. Further, the “protection against hydrochloric acid/ethanol lesions (in words)” value in data set [4] (listed as Cimetidin) is “practically inactive”. Besides, the “average length of haemmorrhages, treated” value in data set [4] (300 mg/kg p.o., n = 16, control 74.8 ± 6.4) is reported as 64.2 ± 12.3 mm. Also, the “average length … change in %” value in data set [4] (300 mg/kg p.o.) is reported as -24%. In data set [5] (100 mg/kg p.o.), this compound showed an erosion inhibition % of 34%, an erosion ulcus-index mm of 24.4 ± 10.0 mm, a hyperemia inhibition % of 21% and a hyperemia ulcer-index mm of 58.1 ± 10.4 mm. In data set [5] (200 mg/kg p.o.), this compound registered an erosion inhibition % of 50%, an erosion ulcus-index mm of 18.2 ± 11.2 mm, a hyperemia inhibition % of 39% and a hyperemia ulcer-index mm of 48.2 ± 14.6 mm. For the same compound, in data set [5] (substance 1 at 50 mg/kg p.o., cimetidine), the “inhibition of hyperemia and erosion (in words)” value is reported as “no significant inhibition”.
In the case of `NCCc1c[nH]cn1` [histamine, reference compound], in data set [6], the “acid secretion μEqu/4^h” value is listed as 1477 ± 80 μEqu/4^h, the “acidity μEqu/ml” value was found to be 237 ± 18 μEqu/ml and the “volume/4^h” value was determined as 6.3 ± 0.7 mL.
Consider `COc1ccc2cc([C@H](C)C(=O)O)ccc2c1` [naproxen, reference compound], for which, in data set [7], the “ulcus index ± SEM” value is listed as 25.2 ± 6.1.
Regarding `CN1C(C(=O)Nc2ccccn2)=C(O)c2ccccc2S1(=O)=O` [piroxicam, reference compound], the “ulcus index ± SEM” value in data set [8] worked out at 23.3 ± 6.4.
